Target: non-endogenous, constitutively activated version of the human 5-HT2A receptor (human CART 5-HT2A) (Homo sapiens, UniProt P28223)
Experiment: Intracellular IP3 (inositol phosphate) accumulation assay, inverse agonist potency
Format: cell-based
Settings: HEK293 cells transfected with mutated constitutively active 5-HT2A, averages of at least two trials, read-out: 5-HT2A (IC50) IP Accumulation Assay
Description: It is well established that human 5-HT2A receptors coupled to the guanine nucleotide binding protein Gq. 5-HT2A-mediated activation of Gq results in activation of membrane associated phospholipase C which in turn catalyzes the hydrolysis of phosphatidylinositol species (PI, PIP, and PIP2) to form inositol phosphate species (IP, IP2, and IP3). The accumulation of inositol phosphate species can be measured and is often used to determine the functional potency of 5-HT2A agonists or antagonists. However, to evaluate compounds for potential inverse agonist activity, the 5-HT2A receptor must display constitutive activity. We have mutated the human 5-HT2A receptor so as to generate a non-endogenous, constitutively activated version of the 5-HT2A receptor, as disclosed in SEQ ID NO:30 (polynucleotide) and SEQ ID NO:31 (polypeptide) in U.S. Pat. No. 6,541,209 (the disclosure of which is hereby incorporated by reference in its entirety). Upon transfection of this mutated 5-HT2A into HEK293 cells, it was observed that there was a ligand-independent increase in basal inositol phosphate accumulation compared to untransfected cells. This ligand-independent insoitol phosphate accumulation is a trademark of constitutive activity. The following protocol was used to assess inverse agonist potency of compounds.
On day one, 13×10^6 HEK293 cells per 150 mm plate were plated out. On day two, 2 ml of serum OptimemI is added per plate followed by addition of 60 ul of lipofectamine and 16ug of cDNA. Note that lipofectamine must be added to the OptimemI and mixed well before addition of cDNA. While complexes between lipofectamine and the cDNA are forming, media is carefully aspirated and cells are gently rinsed with 5 ml of OptimemI media followed by careful aspiration. Then 12 ml of OptimemI is added to each plate and 2 ml of transfection solution is added followed by a 5 hour incubation at 37° C. in a 5% CO2 incubator. Plates are then carefully aspirated and 25 ml of Complete Media are added to each plate and cells are then incubated until used. On day 3, cells are trypsinized with 5 ml of 0.05% trypsin for 20-30 seconds followed by addition of 10 ml of warmed media, gently titurated to dissociate cells, and then 13 additional ml of warmed media is gently added. Cells are then counted and then 55,000 cells are added to 96-well sterile poly-D-lysine coated plates. Cells are allowed to attach over a six hour incubation at 37° C. in a 5% CO2 incubator. Media is then carefuilly aspirated and 100 ul of warm inositol-free media plus 0.5 μCi ^3H-inositol is added to each well and the plates are incubated for 18-20 hours at 37° C. in a 5% CO2 incubator.
On day 4, media is carefully aspirated and then 0.1 ml of assay medium is added containing inositol-free/serum free media, 10 μM pargyline, 10 mM lithium chloride, and test compound at indicated concentrations. The plates were then incubated for three hours at 37° C. and then wells are carefully aspirated. Then 200 ul of ice-cold 0.1M formic acid is added to each well. Plates can then be frozen at this point at −80° C. until further processed. Frozen plates are then thawed over the course of one hour, and the contents of the wells (approximately 220 ul) are placed over 400 ul of washed ion-exchange resin (AG 1-X8) contained in a Multi Screen Filtration plate and incubated for 10 minutes followed by filtration under vacuum pressure. Resin is then washed nine times with 200 ul of water and then [^3H]inositol phosphates are eluted into a collecting plate by the addition of 200 ul of 1M ammonium formate and an additional 5 minute incubation. The elutant is then transferred to 20 ml scintillation vials, 8 ml of SuperMix or Hi-Safe scintillation cocktails is added, and vials are counted for 0.5-1 minutes in a Wallac 1414 scintilation counter.
At each concentration, triplicate determinations were made. […]

Row | Compound | IC50 [nM]
1 | Cn1ncc(Br)c1-c1cccc(Nc2ccc(C(F)(F)F)cc2)c1 [Compound 44, [3-(4-Bromo-2-methyl-2H-pyrazol-3-yl)-phenyl]-(4-trifluoromethyl-phenyl)-amine] | 2.99
2 | Cn1ncc(Cl)c1-c1cccc(Nc2ccc(OC(F)(F)F)cc2)c1 [Compound 8, [3-(4-Chloro-2-methyl-2H-pyrazol-3-yl)-phenyl]-(4-trifluoromethoxy-phenyl)-amine] | 44.6
3 | Cn1ncc(Br)c1-c1cccc(Nc2nc3ccccc3o2)c1 [Compound 57, Benzoxazol-2-yl-[3-(4-bromo-2-methyl-2H-pyrazol-3-yl)-phenyl]-amine] | 10.6

Now from value to molecule:

Row | IC50 [nM] | Compound
4 | 7 | Cn1ncc(Br)c1-c1cccc(Nc2ccc(Cl)cc2)c1 [Compound 36, [3-(4-Bromo-2-methyl-2H-pyrazo1-3-yl)-phenyl]-(4-chloro-phenyl)-amine]
5 | 1.77 | COc1ccc(Nc2ccc(Cl)cc2)cc1-c1c(Br)cnn1C [Compound 70, [3-(4-Bromo-2-methyl-2H-pyrazol-3-yl)-4-methoxy-phenyl)-(4-chloro-phenyl)-amine]
6 | 113 | Cn1ncc(Br)c1-c1cccc(Nc2ccc(S(C)(=O)=O)cc2)c1 [Compound 46, [3-(4-Bromo-2-methyl-2H-pyrazol-3-yl)-phenyl]-(4-methanesulfonyl-phenyl)-amine]
7 | 19 | Cc1cc(Nc2cccc(-c3c(Br)cnn3C)c2)ccc1Cl [Compound 49, [3-(4-Bromo-2-methyl-2H-pyrazol-3-yl)-phenyl]-(3-methyl-4-chloro-phenyl)-amine]

From patent US20060229335A1, “Diarylamine and arylheteroarylamine pyrazole derivatives as modulators of 5ht2a” (priority 2002, published 2006)
